Laboratory results: patent publication US20080269121A1, “Methods and Compositions Involving A1c Subunit of L-Type Calcium Channels in Smooth Muscle Cells” (The Board of Regents of the University of Texas System, priority 2005, published 2008)
Entries after “also recorded” stand apart in the source; their conditions may differ.

Tests used:
CREB = CREB phosphorylation in HCCSMC; type: cell-based, human
Procedure: Western immunoblotting. Each lane is loaded with 10 μg protein and size-separated on a 10% SDS polyacrylamide gel. After blotting, the nitrocellulose membranes are blocked with 10% non-fat dried milk at 4° C. overnight. The blots are incubated with appropriate dilution of the antibody at 4° C. overnight and appropriate dilution of designated secondary antibody at room temperature for 1 h. β-actin is used as internal control.

α1C1b promoter = α1C1b promoter luciferase reporter activity in HCCSMC; type: cell-based, human
Procedure: Transient cell transfections and luciferase activity. FuGENE 6 (Roche, Mannheim, Germany) is used to transfect luciferase-expressing pGL2 constructs in HCCSMC. The cells in passage 4 are seeded into 12-well plates (Costar, Acton, Mass.) and grown to 70% to 80% confluency. Transfections are carried out by incubation of cells in each well with 1.5 μl of FuGENE 6, 0.5 μg of pGL2 construct, and 0.125 μg of pSEAP2 Control Vector (BD Biosciences Clontech, Palo Alto, Calif.) for 24 h as per manufacturer's instructions. The pSEAP2 Control Vector is co-transfected for normalization of data. The transfected cells were treated with stimulus or medium control and harvested after 24 hours. Twenty μl of the supernatant of the cell lysates are taken for the measurement of luciferase activity by a luminometer (Promega, Madison, Wis.). The SEAP activity is measured with a Clontech SEAP detection kit by following the manufacturer's instructions.
Promoter constructs, 5′-deletions, and site-directed mutagenesis. The promoter constructs of hα1c1b are prepared by PCR amplification of human genomic DNA (Roche, Indianapolis, Ind.) and digested partially with Hind III (Promega, Madison, Wis.) using the FailSafe PCR kit (Epicentre, Madison, Wis.). The PCR product is subcloned into pDrive Cloning Vector with the PCR Cloning^plus kit (Qiagen, Valencia, Calif.) and SURE 2 supercompetent cells (Stratagene, La Jolla, Calif.) and subsequently transferred to the luciferase expression plasmid pGL2-Basic Vector (Promega, Madison, Wis.). The deletion constructs are made using the full length promoter construct as a template in PCR reactions. The same methods and kits are used to subclone the sequenced PCR products into the pDrive and pGL2 vector. The site-directed mutagenesis is carried out using QuikChange® II XL Site-Directed Mutagenesis Kit from Stratagene (La Jolla, Calif.), as per manufacturer's instructions.

p38 = assay: MAP kinase phosphorylation: p38; type: cell-based
CRE1 and CRE2 = assay: Oligonucleotide agarose conjugate pull-down of CREB; type: cell-based, human; details: FIG. 10
cAMP = cAMP levels in HCCSMC; type: cell-based, human
Text: Primary cultures of HCCSMC: Human tissue was obtained from the descending and sigmoid colons with approval of the University of Texas Medical Branch Institutional Review Board from disease free margins of resected segments from patients undergoing surgery for colon cancer. The circular muscle layer was separated from the taenia coli and lamina propria with a tissue slicer. The circular muscle layer was collected in ice-cold HEPES buffer (in mM: 120 NaCl, 2.6 KH2S04, 4 KCl, 2 CaCl2, 0.6 MgCl2, 25 HEPES, 14 glucose and 2.1% essential amino acid mixture, pH 7.4). Two successive digestions with papain and collagenase, as described previously by Shi and Sarna, were used to disperse smooth muscle cells. The cells were cultured in RPMI 1640 (Gibco/Invitrogen, Carlsbad, Calif.) supplemented with 10% fetal bovine serum in the presence of 100 units/mL of penicillin G, 100 μg/mL of streptomycin sulfate and 0.25 μg/mL of amphoteracin B. The culture medium was changed every three days. Cells in passages 3 to 5 were used in all experiments. All cells were cultured in serum-free medium for at least 15 h prior to experiments to eliminate the possible effects of growth factors. […] The cultures of colonic smooth muscle cells retain their contractile phenotype. Each experiment used cells or muscle strips from at least three different subjects.

JNK/SAPK = assay: MAP kinase phosphorylation: JNK/SAPK; type: cell-based
[1] = test system: TNBS-induced inflammation; type: in vivo, rat; details: intact rat model, treatment through osmotic pumps, expected
Procedure: (§1) Muscle bath experiments. Pure circular muscle strips (2 mm×10 mm) are prepared from resected human colon segments. The strips are mounted in 5 ml baths filled with carbonated Krebs solution (in mM: 118 NaCl, 4.7 KCl, 2.5 CaCl2, 1 NaH2PO4, 1-2 MgCl2, 11 D-glucose, and 25 NaHCO3) at 37° C. (Siebenlist et al., 1994; Barnes and Karin, 1997). The muscle strips are equilibrated for 1 h at 1 g tension and then stretched until maximal response is obtained to 10^−4 m ACh. The bathing solution is replaced every 15 min. Contractions are measured by force transducers and analyzed by DATAQ (Akron, Ohio) software.
Vertebrate Animals. Sprague-Dawley rats were used. For tissue harvesting, the rats were anesthetized with 5% isoflurame in 100% oxygen for 5 to 7 minutes followed by i.p. injection of 50 mg/kg ketamine.
Osmotic pumps were implanted under anesthesia as discussed above. Lateral surface of left back were shaven and cleaned with betadine. A 2 cm incision was made in the skin and subcutaneous facia and muscle separated. The micro-osmotic pump were implanted intramuscularly and the incision was closed.
Colonic inflammation was induced by intraluminal injection of 30 mg/kg or 130-mg/kg trinitrobenzene sulfonic acid (TNBS) under anesthesia, as described above.

[2] = test system: human colonic circular muscle strips; assay: Muscle bath: contractile response of human colonic circular muscle strips; type: cell-based
Procedure: as §1
The protocol for transfection of sense and antisense oligonucleotides in freshly obtained muscle strips was similar to that in HCCSMC. The circular muscle layer was isolated from the fall thickness human colon, and sliced into 2 mm×10 mm muscle strips. The strips were incubated in RPMI 1640 without serum. The sense and antisense oligonucleotides (10 μM) were added into the medium for 24 h before incubation with 20 ng/mL TNFα for 24 h.

## vasoactive intestinal polypeptide [VIP]
CREB
  duration of CREB phosphorylation: lasted about one hour
CREB; HCCSMC
  phosphorylation of CREB: phosphorylated upon exposure to VIP; also recorded: transient phosphorylation
α1C1b promoter; substance by itself
  α1C1b promoter reporter (luciferase) activity: enhanced in a concentration-dependent manner; also recorded: concentration-dependently increased; also recorded: enhanced promoter activity in normal cells
α1C1b promoter; with TNFα
  effect on suppression of α1C1b promoter activity by TNFα: significantly blocked this reduction; also recorded: partially blocked the suppression
p38
  phosphorylation of p38: time-dependently dephosphorylated
CRE1 and CRE2
  CREB binding to CRE1 and CRE2: more CREB binds at both CRE1 and CRE2
cAMP
  duration of elevated cAMP levels: at least 24 h
cAMP; 24 h treatment
  intercellular cAMP levels: elevated throughout the 24 h period
JNK/SAPK
  phosphorylation of JNK/SAPK: time-dependently dephosphorylated
[1]
  effect on suppression of contractility due to TNBS-induced inflammation: partially inhibit the suppression of contractility
[2]; muscle strips, treatment before/with TNFα
  effect on TNFα suppression of contractile response to ACh: significantly reduces the suppression; also recorded: partially reversed the suppression
[2]; strips incubated 24 h, organ bath
  contractile response of circular muscle strips to ACh: enhanced the contractile response to ACh and KCl; also recorded: increased their contractile response to ACh; also recorded: enhanced it
